Source: PubChem BioAssay AID1963425 (Molecular Pharmacology Branch, DTP, NCI, 2024)

Test system: 323965-272-R-J2-PDC complex spheroid growth, % test/control
Test: Anticancer human tumor 323965-272-R-J2-PDC patient-derived pancreatic carcinoma cell line growth inhibition [Asc]
Conditions: for IC50: curve of first compound; for viability, T/C: stronger effect = lower value
Outline: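 Complex solid-tumor spheroids incorporating human endothelial and mesenchymal stem cells received single agents or combinations over half-log dilution ranges anchored to clinical Cmax.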

[1] = second compound 0.0316 µM, first compound 0.0316 µM
[2] = second compound 0.0316 µM, first compound 0.1 µM
[3] = second compound 0.1 µM, first compound 0.0316 µM
[4] = second compound 0.1 µM, first compound 0.1 µM
[5] = second compound 0.316 µM, first compound 0.0316 µM
[6] = second compound 0.316 µM, first compound 0.1 µM
[7] = second compound 1 µM, first compound 0.0316 µM
[8] = second compound 1 µM, first compound 0.1 µM
[9] = second compound 3.16 µM, first compound 0.0316 µM
[10] = second compound 3.16 µM, first compound 0.1 µM
[11] = second compound 10 µM, first compound 0.0316 µM
[12] = second compound 10 µM, first compound 0.1 µM
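Note: compound exposure lasted 7 days starting three days after spheroid seeding.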
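Throughout, for viability, T/C: 100% = DMSO vehicle control wells with viability set relative to vehicle.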

## C#Cc1c(F)ccc2cc(O)cc(-c3ncc4c(N5CC6CCC(C5)N6)nc(OCC56CCCN5CC(F)C6)nc4c3F)c12 (stereo unspecified) + Cc1c(S(C)(=O)=O)c(-c2cc(F)cc(N3CCN(c4ccc(NS(=O)(=O)c5ccc(NC(CCN6CCC(C(=O)OCCCP(=O)(O)O)CC6)CSc6ccccc6)c(S(=O)(=O)C(F)(F)F)c5)cc4)CC3)c2)c(-c2ccc(Cl)cc2)n1C(C)C
Second compound 0.0316 µM
  IC50: > 10000 nM
Second compound 0.1 µM
  IC50: > 10000 nM
Second compound 0.316 µM
  IC50: 8150 nM
Second compound 1 µM
  IC50: 6920 nM
Second compound 3.16 µM
  IC50: 4120 nM
Second compound 10 µM
  IC50: 3590 nM
[1]
  viability, T/C: 99.9%
[2]
  viability, T/C: 98.2%
Second compound 0.0316 µM, first compound 0.316 µM
  viability, T/C: 109%
Second compound 0.0316 µM, first compound 1 µM
  viability, T/C: 108%
Second compound 0.0316 µM, first compound 3.16 µM
  viability, T/C: 79.4%
Second compound 0.0316 µM, first compound 10 µM
  viability, T/C: 58.2%
[3]
  viability, T/C: 100%
[4]
  viability, T/C: 111%
Second compound 0.1 µM, first compound 0.316 µM
  viability, T/C: 93.2%
Second compound 0.1 µM, first compound 1 µM
  viability, T/C: 93.2%
Second compound 0.1 µM, first compound 3.16 µM
  viability, T/C: 75.7%
Second compound 0.1 µM, first compound 10 µM
  viability, T/C: 51.4%
[5]
  viability, T/C: 97.8%
[6]
  viability, T/C: 99.1%
Second compound 0.316 µM, first compound 0.316 µM
  viability, T/C: 98.2%
Second compound 0.316 µM, first compound 1 µM
  viability, T/C: 90.6%
Second compound 0.316 µM, first compound 3.16 µM
  viability, T/C: 73.9%
Second compound 0.316 µM, first compound 10 µM
  viability, T/C: 45%
[7]
  viability, T/C: 87.1%
[8]
  viability, T/C: 87.9%
Second compound 1 µM, first compound 0.316 µM
  viability, T/C: 88.4%
Second compound 1 µM, first compound 1 µM
  viability, T/C: 80.8%
Second compound 1 µM, first compound 3.16 µM
  viability, T/C: 67.9%
Second compound 1 µM, first compound 10 µM
  viability, T/C: 41.5%
[9]
  viability, T/C: 74.6%
[10]
  viability, T/C: 73.8%
Second compound 3.16 µM, first compound 0.316 µM
  viability, T/C: 80.7%
Second compound 3.16 µM, first compound 1 µM
  viability, T/C: 76.5%
Second compound 3.16 µM, first compound 3.16 µM
  viability, T/C: 56.2%
Second compound 3.16 µM, first compound 10 µM
  viability, T/C: 29.3%
[11]
  viability, T/C: 72%
[12]
  viability, T/C: 73.6%
Second compound 10 µM, first compound 0.316 µM
  viability, T/C: 59.9%
Second compound 10 µM, first compound 1 µM
  viability, T/C: 72%
Second compound 10 µM, first compound 3.16 µM
  viability, T/C: 50.9%
Second compound 10 µM, first compound 10 µM
  viability, T/C: 24.4%

## NC1CCC(NC2CC2c2ccccc2)CC1 (stereo unspecified) + Cc1c(S(C)(=O)=O)c(-c2cc(F)cc(N3CCN(c4ccc(NS(=O)(=O)c5ccc(NC(CCN6CCC(C(=O)OCCCP(=O)(O)O)CC6)CSc6ccccc6)c(S(=O)(=O)C(F)(F)F)c5)cc4)CC3)c2)c(-c2ccc(Cl)cc2)n1C(C)C
Second compound 0.0316 µM
  IC50: > 100 nM
Second compound 0.1 µM
  IC50: > 100 nM
Second compound 0.316 µM
  IC50: > 100 nM
Second compound 1 µM
  IC50: > 100 nM
Second compound 3.16 µM
  IC50: > 100 nM
Second compound 10 µM
  IC50: > 100 nM
Second compound 0.0316 µM, first compound 0.000316 µM
  viability, T/C: 105%
Second compound 0.0316 µM, first compound 0.001 µM
  viability, T/C: 107%
Second compound 0.0316 µM, first compound 0.00316 µM
  viability, T/C: 107%
Second compound 0.0316 µM, first compound 0.01 µM
  viability, T/C: 109%
[1]
  viability, T/C: 122%
[2]
  viability, T/C: 112%
Second compound 0.1 µM, first compound 0.000316 µM
  viability, T/C: 105%
Second compound 0.1 µM, first compound 0.001 µM
  viability, T/C: 99.2%
Second compound 0.1 µM, first compound 0.00316 µM
  viability, T/C: 120%
Second compound 0.1 µM, first compound 0.01 µM
  viability, T/C: 113%
[3]
  viability, T/C: 109%
[4]
  viability, T/C: 99%
Second compound 0.316 µM, first compound 0.000316 µM
  viability, T/C: 108%
Second compound 0.316 µM, first compound 0.001 µM
  viability, T/C: 101%
Second compound 0.316 µM, first compound 0.00316 µM
  viability, T/C: 96.6%
Second compound 0.316 µM, first compound 0.01 µM
  viability, T/C: 103%
[5]
  viability, T/C: 104%
[6]
  viability, T/C: 102%
Second compound 1 µM, first compound 0.000316 µM
  viability, T/C: 94.4%
Second compound 1 µM, first compound 0.001 µM
  viability, T/C: 100%
Second compound 1 µM, first compound 0.00316 µM
  viability, T/C: 93.9%
Second compound 1 µM, first compound 0.01 µM
  viability, T/C: 106%
[7]
  viability, T/C: 96.5%
[8]
  viability, T/C: 92.2%
Second compound 3.16 µM, first compound 0.000316 µM
  viability, T/C: 84.5%
Second compound 3.16 µM, first compound 0.001 µM
  viability, T/C: 82.1%
Second compound 3.16 µM, first compound 0.00316 µM
  viability, T/C: 81.5%
Second compound 3.16 µM, first compound 0.01 µM
  viability, T/C: 76.5%
[9]
  viability, T/C: 90%
[10]
  viability, T/C: 81.2%
Second compound 10 µM, first compound 0.000316 µM
  viability, T/C: 83%
Second compound 10 µM, first compound 0.001 µM
  viability, T/C: 70.1%
Second compound 10 µM, first compound 0.00316 µM
  viability, T/C: 66.5%
Second compound 10 µM, first compound 0.01 µM
  viability, T/C: 84%
[11]
  viability, T/C: 81.9%
[12]
  viability, T/C: 73%

## NC(=O)C(=Cn1cnc(-c2cc(C(F)(F)F)cc(C(F)(F)F)c2)n1)c1cncnc1 + Cc1c(S(C)(=O)=O)c(-c2cc(F)cc(N3CCN(c4ccc(NS(=O)(=O)c5ccc(NC(CCN6CCC(C(=O)OCCCP(=O)(O)O)CC6)CSc6ccccc6)c(S(=O)(=O)C(F)(F)F)c5)cc4)CC3)c2)c(-c2ccc(Cl)cc2)n1C(C)C
Second compound 0.0316 µM
  IC50: > 300 nM
Second compound 0.1 µM
  IC50: > 300 nM
Second compound 0.316 µM
  IC50: > 300 nM
Second compound 1 µM
  IC50: 205 nM
Second compound 3.16 µM
  IC50: 114 nM
Second compound 10 µM
  IC50: 63.7 nM
Second compound 0.0316 µM, first compound 0.000949 µM
  viability, T/C: 111%
Second compound 0.0316 µM, first compound 0.003 µM
  viability, T/C: 96.9%
Second compound 0.0316 µM, first compound 0.00949 µM
  viability, T/C: 115%
Second compound 0.0316 µM, first compound 0.03 µM
  viability, T/C: 89.1%
Second compound 0.0316 µM, first compound 0.0949 µM
  viability, T/C: 81.5%
Second compound 0.0316 µM, first compound 0.3 µM
  viability, T/C: 55.8%
Second compound 0.1 µM, first compound 0.000949 µM
  viability, T/C: 95.2%
Second compound 0.1 µM, first compound 0.003 µM
  viability, T/C: 92.8%
Second compound 0.1 µM, first compound 0.00949 µM
  viability, T/C: 92%
Second compound 0.1 µM, first compound 0.03 µM
  viability, T/C: 94.8%
Second compound 0.1 µM, first compound 0.0949 µM
  viability, T/C: 78%
Second compound 0.1 µM, first compound 0.3 µM
  viability, T/C: 53.8%
Second compound 0.316 µM, first compound 0.000949 µM
  viability, T/C: 94%
Second compound 0.316 µM, first compound 0.003 µM
  viability, T/C: 100%
Second compound 0.316 µM, first compound 0.00949 µM
  viability, T/C: 93.3%
Second compound 0.316 µM, first compound 0.03 µM
  viability, T/C: 84.9%
Second compound 0.316 µM, first compound 0.0949 µM
  viability, T/C: 76.1%
Second compound 0.316 µM, first compound 0.3 µM
  viability, T/C: 49.8%
Second compound 1 µM, first compound 0.000949 µM
  viability, T/C: 91%
Second compound 1 µM, first compound 0.003 µM
  viability, T/C: 88.6%
Second compound 1 µM, first compound 0.00949 µM
  viability, T/C: 80.2%
Second compound 1 µM, first compound 0.03 µM
  viability, T/C: 77.6%
Second compound 1 µM, first compound 0.0949 µM
  viability, T/C: 64.4%
Second compound 1 µM, first compound 0.3 µM
  viability, T/C: 42.6%
Second compound 3.16 µM, first compound 0.000949 µM
  viability, T/C: 79%
Second compound 3.16 µM, first compound 0.003 µM
  viability, T/C: 78.1%
Second compound 3.16 µM, first compound 0.00949 µM
  viability, T/C: 76%
Second compound 3.16 µM, first compound 0.03 µM
  viability, T/C: 63.1%
Second compound 3.16 µM, first compound 0.0949 µM
  viability, T/C: 55%
Second compound 3.16 µM, first compound 0.3 µM
  viability, T/C: 32.6%
Second compound 10 µM, first compound 0.000949 µM
  viability, T/C: 69.9%
Second compound 10 µM, first compound 0.003 µM
  viability, T/C: 68.7%
Second compound 10 µM, first compound 0.00949 µM
  viability, T/C: 63.1%
Second compound 10 µM, first compound 0.03 µM
  viability, T/C: 63.6%
Second compound 10 µM, first compound 0.0949 µM
  viability, T/C: 43%
Second compound 10 µM, first compound 0.3 µM
  viability, T/C: 30.3%
